Experimental data from US20080167376A1, “Methods and products which utilize N-acyl-L-aspartic acid” (DMI BIOSCIENCES, INC., priority 2003, published 2008).

Assays:
[1] = system: PGE2 production in ionomycin-stimulated STTG cells; assay: Prostaglandin E2 assay (PGE2 EIA) in ionomycin-stimulated STTG cells; format: cell-based, human; conditions: for effect on total PGE2 release / decrease in PGE2 release: FIG. 2
Protocol: FIG. 1. Percent inhibition of prostaglandin E2 (PGE2) production in ionomycin-stimulated STTG cells. PGE2 production was assayed in ionomycin-stimulated STTG cells treated with N-acetyl-L-aspartate (NAA), aspirin (Asp) or dexamethasone (Dex) using a PGE2 enzyme immunoassay described in Example 1. Cells were pre-incubated for 1 hour with NAA, Asp or Dex and then stimulated with 1 μM ionomycin at 37° C., 10% CO2 for 24 hours. Percent inhibition of PGE2 production was measured compared to ionomycin-stimulated STTG cells in the absence of NAA, Asp or Dex. Data represent mean ±SD of three separate experiments. Asterisks indicate a significant difference between untreated, ionomycin-stimulated STTG cells and treated, ionomycin-stimulated STTG cells: *p<0.01. Iono=ionomycin.
FIG. 2. Effect of glutamate receptor antagonists and NAA on PGE2 release in STTG cells stimulated with ionomycin. PGE2 production was assayed in ionomycin-stimulated STTG cells treated with NAA or potential glutamate receptor antagonists (AP-4 and GDE) using a PGE2 enzyme immunoassay described in Example 1. Cells were pre-incubated for 1 hour with NAA or the potential glutamate receptor antagonists and then cells were stimulated with 1 μM ionomycin at 37° C., 10% CO2 for 24 hours. Percent inhibition of PGE2 production was measured compared to ionomycin-stimulated STTG cells in the absence of NAA or potential glutamate receptor antagonists. Data represent mean ±SD of three separate experiments. Asterisks indicate a significant difference between untreated, ionomycin-stimulated STTG cells and treated, ionomycin-stimulated STTG cells: *p<0.01. AP-4=L-2-amino-4-phosphonobutyric acid, and GDE=L-glutamic acid diethyl ester.
Prostaglandin E2 Assay. Human STTG astroglial cells (CRL-1718, American […], Rockville, Mass.) were grown in 75 cm^2 flasks (10% CO2, 37° C.) containing AGM medium (BioWhittaker, Walkersville, Md.) to near confluency (>90%) prior to subculturing with trypsin/EDTA. Cells were plated on a 24-well plate at 50,000 cells/well and incubated for two days to near confluency prior to dosing with inhibitors. N-Acetyl aspartate (NAA, Sigma-Aldrich, St. Louis, Mo.) was dissolved in AGM medium and brought back to a pH of 7.4. Stock solutions of aspirin were dissolved in DMSO and then diluted in culture medium. DMSO concentrations were never >0.5% in the medium bathing the cells. Cells were then dosed with potential prostaglandin E2 (PGE2) inhibitors (NAA, L-2-Amino-4-phosphonobutyric acid [L-AP-4, Sigma-Aldrich, St. Louis, Mo.], L-glutamic acid diethyl ester [GDE, generous gift from Nagaraja K. R. Rao, DMI Synthesis UK Ltd.], aspirin, or dexamethasone). After a 1-hour incubation, the cells were then stimulated with 1 μM ionomycin (Sigma-Aldrich, St. Louis, Mo.) for 24 hours at 37° C. Total volume per well was 1 mL. Then, 0.5 mL of culture medium was removed from each well and immediately assayed for PGE2 using the Prostaglandin E2 enzyme immunoassay (EIA) system (Amersham, Piscataway, N.J.). The remaining medium containing the cells was assayed for cell viability using cell titer reagent (G358A, Promega, Madison, Wis.).

[2] = system: COX-2 protein in STTG cells; assay: Western blot of total COX-2 protein in STTG cells; format: cell-based, human; conditions: 24 h, 200 μM aspirin, 10 mM NAA (FIG. 3); for effect on total amount of COX-2 protein: STTG cells stimulated with 1 or 2 ng/ml IL-1β; for effect on resting COX-2 protein: unstimulated STTG cells
Protocol: FIG. 3. Representative Western blot for total COX-2 protein in IL-1β-stimulated STTG cells treated with NAA and aspirin. Cells were incubated for 24 hours at 37° C., 10% CO2. Cells were dosed as follows: untreated (lane 1), 200 μM aspirin (lane 2), 10 mM NAA (lane 3), 1 ng/ml IL-1β (lane 4), 2 ng/ml IL-1β (lane 5), 1 ng/ml IL-1β+200 μM aspirin (lane 6), 2 ng/ml IL-1β+200 μM aspirin (lane 7), 1 ng/ml IL-1β+10 mM NAA (lane 8), or 2 ng/ml IL-1β+10 mM NAA (lane 9). Cells were lysed and COX-2 protein was immunoprecipitated overnight (1:500 goat anti-human COX-2) from 400 μg total lysate protein. Immunoprecipitate was loaded on 4-20% tris-glycine gel and transferred overnight onto nitrocellulose membrane. Total COX-2 protein was quantitated using a goat anti-human COX-2 antibody (1:100) and 1:5,000 rabbit anti-goat IgG. The membrane was visualized by chemiluminescence.
Western Blot of COX-2. STTG cells were treated with either NAA or aspirin and immediately stimulated with 1 or 2 ng/ml IL-1β (Sigma-Aldrich, St. Louis, Mo.). After a 24-hour incubation at 37° C. (10% CO2), cells were lysed and total protein was quantitated by BCA (Pierce, Rockford, Ill.). Then, 0.5 mg lysate was immunoprecipitated using 1:500 goat anti-human COX-2 (Santa Cruz Biotechnology, Santa Cruz, Calif.) and Protein AG beads (Pierce, Rockford, Ill.) overnight at 4° C. Samples were loaded on a 4-20% Tris-Glycine gel (Invitrogen, Carlsbad, Calif.) and transferred to a nitrocellulose membrane overnight. The membrane was blocked with 5% Blotto (Santa Cruz Biotechnology, Santa Cruz, Calif.), and COX-2 was detected using 1:100 goat anti-human COX-2 (Santa Cruz Biotechnology, Santa Cruz, Calif.) and 1:5,000 rabbit anti-goat IgG HRP (Santa Cruz Biotechnology, Santa Cruz, Calif.). The membrane was visualized using ECL (Amersham, Piscataway, N.J.) and exposed to X-ray film.

[3] = biological target: T1, COX-2 (Homo sapiens, UniProt P35354); assay: COX-2 activity assay (PGE2 EIA system); format: biochemical; conditions: concentrations up to 20 mM; 0.05 units COX-2, 1 μM arachidonic acid; data not shown
T1 construct: purchased Oxford Biomedical, Oxford, Mich
T1 sequence (P35354 18-604): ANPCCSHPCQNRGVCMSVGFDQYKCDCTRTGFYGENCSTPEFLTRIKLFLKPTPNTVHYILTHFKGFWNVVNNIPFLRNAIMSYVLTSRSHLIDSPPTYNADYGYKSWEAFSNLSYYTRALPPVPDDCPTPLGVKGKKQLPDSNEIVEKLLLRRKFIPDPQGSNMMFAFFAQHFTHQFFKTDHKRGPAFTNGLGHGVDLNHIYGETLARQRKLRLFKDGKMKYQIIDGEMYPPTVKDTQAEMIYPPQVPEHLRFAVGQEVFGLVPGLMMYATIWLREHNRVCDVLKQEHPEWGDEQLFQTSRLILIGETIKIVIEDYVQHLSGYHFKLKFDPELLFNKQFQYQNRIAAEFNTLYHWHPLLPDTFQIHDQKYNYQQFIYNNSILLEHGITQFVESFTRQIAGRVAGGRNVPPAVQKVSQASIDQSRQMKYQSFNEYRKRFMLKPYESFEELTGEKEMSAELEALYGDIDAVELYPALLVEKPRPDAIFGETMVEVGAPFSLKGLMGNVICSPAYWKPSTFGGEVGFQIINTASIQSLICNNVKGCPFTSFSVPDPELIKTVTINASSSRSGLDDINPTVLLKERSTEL
Protocol: COX-2 Activity Assay. Modifying the method of Ouellet and co-workers (Proc. Natl. Acad. Sci. USA, 98:14583-14588 (2001)), COX-2 activity was determined using the PGE2 EIA system. Briefly, COX-2 (Oxford Biomedical, Oxford, Mich.) was incubated at 37° C. for 5 minutes with arachidonic acid (AA), 500 μM phenol, and 1 μM hematin in a 100 mM phosphate buffer (pH 6.5). The reaction was stopped with a solution containing dH2O/MeOH/1 M citric acid (30:4:1). After optimization of COX-2 and AA, 0.05 units of COX-2 per incubation and 1 μM of AA were determined to be optimal. Varying concentrations of NAA and aspirin (pH 6.5) were pre-incubated with COX-2, hematin, and phenol for 15 minutes at 37° C. prior to AA addition. The reaction was stopped after 5-minute incubation with AA. PGE2 levels were determined using PGE2 EIA system as described.
Effect of NAA on COX-2 activity and mRNA. To determine if NAA was inhibiting the cyclooxygenase enzyme directly, a COX-2 activity assay was developed using the PGE2 EIA system. After optimizing for COX-2 and arachidonic acid (AA), a concentration of 0.05 units/incubation of COX-2 and 1 μM of AA was determined to be optimal.

[4] = system: COX-2 mRNA in STTG astroglial cells; assay: RT-PCR of COX-2 in STTG cells; format: cell-based, human; conditions: 5 and 10 mM, data not shown
Protocol: RT-PCR of COX-2. STTG cells were grown to near confluency on 25 cm^2 cell culture flasks. Cells were dosed with 5 or 10 mM NAA and incubated for 4 or 24 hours at 37° C., 10% CO2. RNA was isolated using Rneasy Mini Kit (Qiagen, Valencia, Calif.) and quantitated using A260/A280 assay. Then, 2 μg of RNA was converted to cDNA using the Omniscript Reverse Transcriptase Kit (Qiagen, Valencia, Calif.). PCR was next performed using HotStarTaq Master Mix (Qiagen, Valencia, Calif.). COX-2 forward ([…] [SEQ ID NO:1]) and reverse primers ([…] [SEQ ID NO:2]) were obtained from Qiagen (Valencia, Calif.) and used at a concentration of 0.5 μM. The PCR thermal cycler program consisted of: 1) 1 denaturation cycle of 15 minutes at 95° C.; 2) 30 cycles of 94° C. (30 sec denaturation), 55° C. (30 sec annealing), and 72° C. (30 sec elongation); and 3) 1 elongation cycle of 10 minutes at 72° C. PCR product was then loaded on a 2% (w/v) agarose gel and stained with ethidium bromide.

[5] = system: activated NFκB in IL-1β-stimulated STTG cells; assay: NFκB assay (ELISA-based) in IL-1β-stimulated STTG cells; format: cell-based, human; conditions: 1 ng/ml IL-1β, 24 h, FIG. 4
Protocol: FIG. 4. Effect of NAA on NFκB levels in STTG cells stimulated with IL-1. Cells were dosed with NAA and immediately stimulated with 1 ng/ml IL-1 for 24 hours at 37° C., 10% CO2. Cells were lysed, and 10 μg of total protein was assayed for activated NFκB levels using an ELISA-based method. Data represent mean ±SD of three separate experiments. Percentages are percent of inhibition of production of activated NFκB. Asterisks indicate a significant difference between untreated, IL-1β-stimulated STTG cells and NAA-treated, IL-1β-stimulated STTG cells: *p<0.005.
NFκB Assay. STTG cells were treated with NAA and stimulated immediately with 1 ng/ml IL-1β. After a 24-hour incubation, cells were lysed and total protein was quantitated using the BCA™ Protein Assay Kit (Pierce, Rockford, Ill.). Then, 10 μg of protein lysate was assayed for NFκB using the TransAM™ NFκB Family Transcription Factor Assay Kit (Catalog No. 43296, Active Motif, Carlsbad, Calif.).
Effect of NAA on NFκB activation. Activated NFκB was quantitated using a 96-well plate coated with an oligonucleotide that contains an NFκB consensus-binding site. This site specifically binds activated NFκB contained in cell extracts.

[6] = ionomycin-stimulated STTG cells, result in words
[7] = 5 mM, ionomycin-stimulated STTG cells
[8] = 10 mM, ionomycin-stimulated STTG cells

Structure (SMILES)	effect on total amount of COX-2 protein [2]	effect on resting COX-2 protein [2]	effect on total PGE2 release [1, 6]	decrease in PGE2 release [1, 7] [%]	decrease in PGE2 release [1, 8] [%]	other results
CC(=O)Oc1ccccc1C(=O)O [aspirin, reference compound]	decreased	decreasing effect	–	–	–	inhibition of cyclooxygenases as evidenced by lack of PGE2 production ([1]; ionomycin-stimulated STTG cells, FIG. 1, result in words): complete inhibition
N[C@@H](CCP(=O)(O)O)C(=O)O [L-AP-4, L-2-amino-4-phosphonobutyric acid, reference compound]	–	–	did decrease	–	–	–
CCOC(=O)CC[C@H](N)C(=O)OCC [GDE, L-glutamic acid diethyl ester, reference compound]	–	–	did decrease	40	60	–
CC(=O)N[C@@H](CC(=O)O)C(=O)O [NAA, N-acetyl-L-aspartic acid]	decreased	no effect	–	60	90	decrease in PGE2 production ([1]; 5 mM, 1 h pre-incubation, 1 μM ionomycin 24 h, STTG cells, FIG. 1): 56%; decrease in PGE2 production ([1]; 10 mM, 1 h pre-incubation, 1 μM ionomycin 24 h, STTG cells, FIG. 1): 76%; inhibition at 20000 µM ([1]; Homo sapiens, 20 mM, 1 h pre-incubation, 1 μM ionomycin 24 h, STTG cells, FIG. 1, read-out: decrease in PGE2 production (inhibition)): > 95%; effect on COX-2 activity [3]: no effect; effect on total COX-2 mRNA [4]: did not decrease; decrease in NFκB production (activated NFκB) ([5]; 10 mM): 17.5%; decrease in NFκB production (activated NFκB) ([5]; 20 mM): 40%
